Reference: patent US20200289474A1, “METHODS OF TREATING PAIN WITH A THIAZOLINE ANTI-HYPERALGESIC” (priority 2019, published 2020)

What was measured:
lactoperoxidase = lactoperoxidase oxidation (mediated by peroxide); format: biochemical; conditions: physiological conditions (neutral pH)
[1] = rat 28-day GLP repeat dose PO study (toxicokinetics); format: in vivo
Experimental: A 28-day GLP repeat dose study with Compound 1 in rats was conducted with oral gavage doses of 0, 500, 1000 or 2000 mg/kg/day at a dosing volume of 10 mL/kg. The vehicle was 0.5% HPMC. There were 15 rats/sex in the control and high dose groups (5/sex for a 14-day recovery period) while the low and mid doses consisted of 10 rats/sex. Satellite groups of rats/sex/group for toxicokinetics were included.
Rats in Group 1 (Vehicle Control) were bled once at approximately 1 hour post-dose on those days.

OATP1B3 = target: T1, OATP1B3 (Homo sapiens, UniProt Q9NPD5); assay: transporter inhibition, HEK293 cells, probe accumulation; format: in vitro ADME
T1 construct: expressed in transfected cells; host or cells: HEK293 cells
T1 sequence (Q9NPD5 1-702): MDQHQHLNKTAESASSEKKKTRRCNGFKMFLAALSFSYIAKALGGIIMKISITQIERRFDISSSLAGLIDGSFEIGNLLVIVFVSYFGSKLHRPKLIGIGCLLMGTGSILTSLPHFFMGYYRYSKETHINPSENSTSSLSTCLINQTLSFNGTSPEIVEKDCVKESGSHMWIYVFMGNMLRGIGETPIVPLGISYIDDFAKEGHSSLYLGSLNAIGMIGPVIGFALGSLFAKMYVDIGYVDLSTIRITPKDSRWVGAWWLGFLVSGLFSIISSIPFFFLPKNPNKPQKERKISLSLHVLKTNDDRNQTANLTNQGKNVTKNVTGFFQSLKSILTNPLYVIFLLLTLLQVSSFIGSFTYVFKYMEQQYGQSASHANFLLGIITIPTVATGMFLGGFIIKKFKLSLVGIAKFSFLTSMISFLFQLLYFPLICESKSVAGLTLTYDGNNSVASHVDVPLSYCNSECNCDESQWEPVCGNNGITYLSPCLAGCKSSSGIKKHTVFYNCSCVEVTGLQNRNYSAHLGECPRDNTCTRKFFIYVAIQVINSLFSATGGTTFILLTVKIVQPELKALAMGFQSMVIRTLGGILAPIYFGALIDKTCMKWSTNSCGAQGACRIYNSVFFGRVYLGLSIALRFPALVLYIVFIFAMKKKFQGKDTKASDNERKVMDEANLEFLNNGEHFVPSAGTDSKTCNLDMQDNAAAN

HEK293 cells = assay: cytotoxicity by lactate dehydrogenase (LDH) release; format: cell-based
[2] = female, rat, in vivo, po, 500 mg/kg
[3] = rat 28-day PO, Day 1, F, 1000 mg/kg
[4] = rat 28-day PO, Day 1, F, 2000 mg/kg
[5] = rat 28-day PO, Day 1, M, 500 mg/kg
[6] = rat 28-day PO, Day 1, M, 1000 mg/kg
[7] = rat 28-day PO, Day 1, M, 2000 mg/kg
[8] = rat 28-day PO, Day 14, F, 500 mg/kg
[9] = rat 28-day PO, Day 14, F, 1000 mg/kg
[10] = rat 28-day PO, Day 14, F, 2000 mg/kg
[11] = rat 28-day PO, Day 14, M, 500 mg/kg
[12] = rat 28-day PO, Day 14, M, 1000 mg/kg
[13] = rat 28-day PO, Day 14, M, 2000 mg/kg
[14] = rat 28-day PO, Day 28, F, 500 mg/kg
[15] = rat 28-day PO, Day 28, F, 1000 mg/kg
[16] = rat 28-day PO, Day 28, F, 2000 mg/kg
[17] = rat 28-day PO, Day 28, M, 500 mg/kg
[18] = rat 28-day PO, Day 28, M, 1000 mg/kg
[19] = rat 28-day PO, Day 28, M, 2000 mg/kg

CC1(C)SC(Nc2ccccc2O)=N[C@@H]1C(=O)O.Cl [Compound 1, (R)-2-(2-hydroxyphenylamino)-5,5-dimethyl-4,5-dihydrothiazole-4-carboxylic acid mono-hydrochloride]
removal of peroxynitrite in lactoperoxidase oxidation (lactoperoxidase): catalytically remove peroxynitrite
Cmax at 28 days ([1]; both sexes, in vivo, po, rat 28-day pivotal study, at some doses): > 100 µg/mL
Tmax at 28 days ([1]; both sexes, in vivo, po, rat 28-day study (summary)): ≤ 1 h
CL/F at 28 days ([1]; both sexes, in vivo, rat 28-day PO, read-out: overall mean CL/F (converted)): 35.2 mL/min/kg
half-life at 28 days ([1]; both sexes, in vivo, rat 28-day PO, read-out: overall mean t1/2 (converted)): 4.24 h
half-life ([1]; both sexes, rat, in vivo, po): 3 to 8 h
overall mean V/F ([1]; both, rat, in vivo, po, 28 days): 12.5 L/kg
AUC [1, 2]: 298 µg·h/mL
AUC(0-inf) [1, 2]: 299 µg·h/mL
CL/F [1, 2]: 27.8 mL/min/kg
Cmax [1, 2]: 74.8 µg/mL
Vd/F [1, 2]: 8.1 L/kg
half-life [1, 2]: 3.36 h
tmax [1, 2]: 2 h
half-life ([1]; female, rat, in vivo, po, 2000 mg/kg): 8.05 h
CL/F ([1]; male, rat, in vivo, po, 1000 mg/kg): 38.7 mL/min/kg
CL/F ([1]; male, rat, in vivo, po, 2000 mg/kg): 35.3 mL/min/kg
AUCINF [1, 3]: 794 µg·h/mL
AUCTAU [1, 3]: 788 µg·h/mL
CL/F (CLz/F) [1, 3]: 21 mL/min/kg
Cmax [1, 3]: 108 µg/mL
t1/2 [1, 3]: 3.39 h
AUCINF [1, 4]: 1324 µg·h/mL
AUCTAU [1, 4]: 1161 µg·h/mL
CL/F (CLz/F) [1, 4]: 25.2 mL/min/kg
Cmax [1, 4]: 118 µg/mL
AUCINF [1, 5]: 275 µg·h/mL
AUCTAU [1, 5]: 270 µg·h/mL
CL/F (CLz/F) [1, 5]: 30.3 mL/min/kg
Cmax [1, 5]: 55.1 µg/mL
t1/2 [1, 5]: 4.18 h
AUCINF [1, 6]: 460 µg·h/mL
AUCTAU [1, 6]: 456 µg·h/mL
CL/F (CLz/F) [1, 6]: 36.2 mL/min/kg
Cmax [1, 6]: 52.7 µg/mL
t1/2 [1, 6]: 3.46 h
AUCINF [1, 7]: 771 µg·h/mL
AUCTAU [1, 7]: 768 µg·h/mL
CL/F (CLz/F) [1, 7]: 43.2 mL/min/kg
Cmax [1, 7]: 83.1 µg/mL
t1/2 [1, 7]: 2.81 h
AUCINF [1, 8]: 225 µg·h/mL
AUCTAU [1, 8]: 223 µg·h/mL
CL/F (CLss/F) [1, 8]: 37.5 mL/min/kg
Cmax [1, 8]: 75.0 µg/mL
t1/2 [1, 8]: 4.20 h
AUCINF [1, 9]: 437 µg·h/mL
AUCTAU [1, 9]: 430 µg·h/mL
CL/F (CLss/F) [1, 9]: 38.7 mL/min/kg
Cmax [1, 9]: 96.3 µg/mL
t1/2 [1, 9]: 4.19 h
AUCINF [1, 10]: 952 µg·h/mL
AUCTAU [1, 10]: 942 µg·h/mL
CL/F (CLss/F) [1, 10]: 35.3 mL/min/kg
Cmax [1, 10]: 127 µg/mL
t1/2 [1, 10]: 3.56 h
AUCINF [1, 11]: 258 µg·h/mL
AUCTAU [1, 11]: 244 µg·h/mL
CL/F (CLss/F) [1, 11]: 34.2 mL/min/kg
Cmax [1, 11]: 45.8 µg/mL
t1/2 [1, 11]: 6.27 h
AUCINF [1, 12]: 296 µg·h/mL
AUCTAU [1, 12]: 293 µg·h/mL
Cmax [1, 12]: 51.9 µg/mL
t1/2 [1, 12]: 3.68 h
AUCINF [1, 13]: 709 µg·h/mL
AUCTAU [1, 13]: 701 µg·h/mL
Cmax [1, 13]: 75.6 µg/mL
t1/2 [1, 13]: 3.66 h
AUCINF [1, 14]: 303 µg·h/mL
AUCTAU [1, 14]: 297 µg·h/mL
CL/F (CLss/F) [1, 14]: 28 mL/min/kg
Cmax [1, 14]: 86.4 µg/mL
t1/2 [1, 14]: 4.62 h
tmax [1, 14]: 0.5 h
AUCINF [1, 15]: 741 µg·h/mL
AUCTAU [1, 15]: 736 µg·h/mL
CL/F (CLss/F) [1, 15]: 22.7 mL/min/kg
Cmax [1, 15]: 128 µg/mL
t1/2 [1, 15]: 3.20 h
AUCINF [1, 16]: 1327 µg·h/mL
AUCTAU [1, 16]: 1305 µg·h/mL
CL/F (CLss/F) [1, 16]: 25.5 mL/min/kg
Cmax [1, 16]: 139 µg/mL
t1/2 [1, 16]: 3.93 h
tmax [1, 16]: 0.5 h
AUCINF [1, 17]: 333 µg·h/mL
AUCTAU [1, 17]: 305 µg·h/mL
CL/F (CLss/F) [1, 17]: 27.3 mL/min/kg
Cmax [1, 17]: 48.6 µg/mL
t1/2 [1, 17]: 6.90 h
AUCINF [1, 18]: 337 µg·h/mL
AUCTAU [1, 18]: 334 µg·h/mL
CL/F (CLss/F) [1, 18]: 49.8 mL/min/kg
Cmax [1, 18]: 47.9 µg/mL
t1/2 [1, 18]: 3.31 h
AUCINF [1, 19]: 731 µg·h/mL
AUCTAU [1, 19]: 724 µg·h/mL
CL/F (CLss/F) [1, 19]: 46 mL/min/kg
Cmax [1, 19]: 83.6 µg/mL
t1/2 [1, 19]: 3.53 h
inhibition (OATP1B3): does not inhibit
cytotoxicity (LDH release) (HEK293 cells): less than 25%
